These are literature values, as cited in patent US20230286919A1, “ISOQUINOLINE DERIVATIVES FOR USE IN THERAPY” (Vestlandets Innovasjonsselskap AS, priority 2020, published 2023).

The test system of this data set is STAT1 and STAT5. Particulars: cited from earlier work.

Consider `Cc1ccc(S(=O)(=O)OCC(=O)Nc2ccc(C(=O)O)c(O)c2)cc1` [S3I-201], for which the “Activity towards STAT1 and STAT5” value is “low activity”.
